Data taken from article PMC6511888, “Synthesis, Biological Evaluation, and Molecular Modeling Studies of New Thiadiazole Derivatives as Potent P2X7 Receptor Inhibitors” (Frontiers in Chemistry, 2019).

How the values were obtained:
Caco-2 cells = experiment: Caco-2 cell permeability; assay type: in vitro ADME; details: compared to the controls and 9f and 11c
Experimental: Corning® Costar® Transwell plates (Sigma-Aldrich, St. Louis, MO, USA) were used for seeding Caco-2 cells at 3 × 10^5 cells/well bathed with DMEM supplemented with 10% FSB according to Faria and collaborator in 2018 (Faria et al., [2018]). This culture was maintained for up to 21 days in a humidified incubator at 37°C and 5% CO2. Thiadiazole analog, vinblastine (poor permeability control), and propranolol (high permeability control) stock solutions, all at a concentration of 100 mM, were prepared in Hanks' balanced salt solution (HBSS) containing 25 mM HEPES at pH 7.4 with 0.5% (v/v) DMSO. Transport buffer (0.3 ml) was added to each well to equilibrate the cells with the transport buffer. A 24-well enhanced recovery plate containing 1 ml of transport buffer (pH 7.4) was substituted for the feeder tray. The transport buffer in the apical wells was removed, and 0.3 ml of a solution containing thiadiazoles 9b, 9c, 9f, or 11c; vinblastine; or propranolol was added. Then, the cells were replaced for incubation for 60 min. Lucifer yellow concentrations in the donor and acceptor wells were measured in the last of this incubation. Lucifer yellow was measured using an M5 plate reader ([…]) at an excitation wavelength of 485 nm and an emission wavelength of 530 nm.

P2X2R = biological target: T1, P2X2R (Rattus norvegicus, UniProt P49653); experiment: ATP-induced [Ca2+]i shifts in PC12 cells; assay type: cell-based
T1 construct: endogenous in cells; host or cells: PC12 cells
T1 sequence (P49653 1-472): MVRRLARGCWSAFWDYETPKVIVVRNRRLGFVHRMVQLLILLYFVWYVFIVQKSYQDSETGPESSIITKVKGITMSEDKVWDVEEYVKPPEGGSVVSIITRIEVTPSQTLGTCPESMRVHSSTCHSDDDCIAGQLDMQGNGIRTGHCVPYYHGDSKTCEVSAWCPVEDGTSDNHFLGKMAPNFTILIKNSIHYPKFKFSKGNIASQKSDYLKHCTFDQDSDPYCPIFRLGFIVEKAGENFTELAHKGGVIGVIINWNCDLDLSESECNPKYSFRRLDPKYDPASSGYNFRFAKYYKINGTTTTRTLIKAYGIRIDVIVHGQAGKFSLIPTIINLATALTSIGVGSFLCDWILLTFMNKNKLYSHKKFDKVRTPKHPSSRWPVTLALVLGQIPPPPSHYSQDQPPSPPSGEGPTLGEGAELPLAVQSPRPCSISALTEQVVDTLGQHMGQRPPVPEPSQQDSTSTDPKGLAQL
Experimental: (§1) Mouse peritoneal macrophages, PC12 cells, J774 cells, and HEPG2 cells were analyzed by fluorescence microscopy to measure the intracellular Ca^2+ concentrations ([Ca^2+]i). Cells were incubated with 2 μM Fura-2-AM (Molecular Probes) for 30 min, and the [Ca^2+]i mobilization was measured in the F340/F380 ratios with a FlexStation 3 multimode microplate reader (Molecular Devices). Cells were plated in translucent 96-well plates (BD Falcon) for 15 min and then washed and incubated in a saline solution with 150 NaCl, 5 KCl, 1 MgCl2, 1 CaCl2, and 10 HEPES (pH 7.4) for 30 min before measurements of [Ca^2+]i. The Ca^2+ influx was induced by stimulating cells with P2 receptor agonists. P2 receptor antagonists were added 10 min before P2 receptor agonist addition. […] Ionomycin was considered a positive control, and the other recordings were normalized in relation to the AUC.

P2X4R = biological target: T2, P2X4R (Rattus norvegicus, UniProt P51577); experiment: ATP-induced [Ca2+]i shifts potentiated by ivermectin in NR8383 alveolar macrophage cell line; assay type: cell-based; details: 10 μM; NR8383 cells
T2 construct: endogenous in cells; host or cells: NR8383 rat alveolar macrophage cell line
T2 sequence (P51577 1-388): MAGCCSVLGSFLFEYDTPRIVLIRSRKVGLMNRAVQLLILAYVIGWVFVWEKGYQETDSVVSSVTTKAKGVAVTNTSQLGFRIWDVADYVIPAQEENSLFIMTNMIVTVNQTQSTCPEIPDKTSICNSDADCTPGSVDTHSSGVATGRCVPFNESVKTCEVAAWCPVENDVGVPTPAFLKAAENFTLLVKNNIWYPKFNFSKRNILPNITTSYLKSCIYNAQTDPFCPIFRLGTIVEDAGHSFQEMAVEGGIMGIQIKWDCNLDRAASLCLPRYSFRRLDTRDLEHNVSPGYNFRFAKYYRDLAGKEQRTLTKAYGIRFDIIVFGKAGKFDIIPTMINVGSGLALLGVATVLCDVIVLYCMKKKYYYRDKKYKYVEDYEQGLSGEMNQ

P2Y1R = biological target: T3, P2Y1R (Mus musculus, UniProt P49650); experiment: ADP-induced [Ca2+]i shifts in mouse peritoneal macrophages; assay type: cell-based; details: concentration not given
T3 construct: endogenous in cells; host or cells: mouse peritoneal macrophages
Experimental: as §1

P2Y2R = biological target: T4, P2Y2R (Mus musculus, UniProt P35383); experiment: 2-S-UTP-activated [Ca2+]i shifts in mouse peritoneal macrophages; assay type: cell-based; details: concentration not given
T4 construct: endogenous in cells; host or cells: mouse peritoneal macrophages
Experimental: as §1

P2Y4R = biological target: T5, P2Y4R (Mus musculus, UniProt Q9JJS7); experiment: MRS4062-induced [Ca2+]i shifts in mice peritoneal macrophages; assay type: cell-based; details: concentration not given
T5 construct: endogenous in cells; host or cells: mouse peritoneal macrophages
Experimental: as §1

P2Y6R = biological target: T6, P2Y6R (Mus musculus, UniProt Q9ERK9); experiment: UDPβS-activated [Ca2+]i shifts in mouse peritoneal macrophages; assay type: cell-based; details: concentration not given
T6 construct: endogenous in cells; host or cells: mouse peritoneal macrophages
Experimental: as §1

P2Y11R = experiment: NAADP-induced [Ca2+]i shifts in mouse peritoneal macrophages; assay type: cell-based; details: concentration not given
Experimental: as §1

P2Y12R = biological target: T7, P2Y12R (Mus musculus, UniProt Q9CPV9); experiment: 2MeSADP-activated [Ca2+]i shifts in mouse peritoneal macrophages; assay type: cell-based; details: concentration not given
T7 construct: endogenous in cells; host or cells: mouse peritoneal macrophages

P2Y13R = biological target: T8, P2Y13R (Homo sapiens, UniProt Q9BPV8); experiment: ADPβS-induced [Ca2+]i shifts in HEP2G cells; assay type: cell-based; details: concentration not given
T8 construct: endogenous in cells; host or cells: HEP2G (HEPG2) cells
T8 sequence (Q9BPV8 1-354): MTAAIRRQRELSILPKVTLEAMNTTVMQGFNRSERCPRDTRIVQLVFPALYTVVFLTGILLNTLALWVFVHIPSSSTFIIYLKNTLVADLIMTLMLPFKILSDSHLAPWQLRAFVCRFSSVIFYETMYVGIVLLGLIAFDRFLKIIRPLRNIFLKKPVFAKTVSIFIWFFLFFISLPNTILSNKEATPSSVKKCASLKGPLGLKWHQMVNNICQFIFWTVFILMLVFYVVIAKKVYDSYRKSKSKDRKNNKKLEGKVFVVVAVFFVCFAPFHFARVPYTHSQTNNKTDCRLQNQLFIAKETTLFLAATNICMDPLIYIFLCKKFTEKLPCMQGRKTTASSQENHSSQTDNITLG
Experimental: as §1

T3 sequence (P49650 whole entry): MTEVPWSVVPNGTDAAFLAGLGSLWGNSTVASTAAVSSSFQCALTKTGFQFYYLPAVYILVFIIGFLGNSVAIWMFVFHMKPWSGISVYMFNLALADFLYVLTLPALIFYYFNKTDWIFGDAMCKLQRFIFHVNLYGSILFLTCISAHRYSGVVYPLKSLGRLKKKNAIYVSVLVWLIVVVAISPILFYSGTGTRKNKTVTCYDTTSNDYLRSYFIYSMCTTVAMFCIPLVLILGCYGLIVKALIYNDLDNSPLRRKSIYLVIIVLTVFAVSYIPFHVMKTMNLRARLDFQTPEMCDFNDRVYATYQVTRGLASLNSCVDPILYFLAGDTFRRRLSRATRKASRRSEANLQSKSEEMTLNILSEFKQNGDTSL
T7 sequence (Q9CPV9 whole entry): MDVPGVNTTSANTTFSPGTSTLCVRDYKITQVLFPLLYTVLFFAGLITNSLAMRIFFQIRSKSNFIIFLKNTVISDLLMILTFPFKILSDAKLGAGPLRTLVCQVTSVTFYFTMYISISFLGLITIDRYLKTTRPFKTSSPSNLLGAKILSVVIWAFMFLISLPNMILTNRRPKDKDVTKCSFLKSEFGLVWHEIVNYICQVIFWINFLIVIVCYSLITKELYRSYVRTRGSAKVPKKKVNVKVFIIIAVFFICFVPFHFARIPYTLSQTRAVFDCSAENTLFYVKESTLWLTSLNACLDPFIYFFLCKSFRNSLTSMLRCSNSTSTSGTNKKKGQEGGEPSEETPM
T6 sequence (Q9ERK9 whole entry): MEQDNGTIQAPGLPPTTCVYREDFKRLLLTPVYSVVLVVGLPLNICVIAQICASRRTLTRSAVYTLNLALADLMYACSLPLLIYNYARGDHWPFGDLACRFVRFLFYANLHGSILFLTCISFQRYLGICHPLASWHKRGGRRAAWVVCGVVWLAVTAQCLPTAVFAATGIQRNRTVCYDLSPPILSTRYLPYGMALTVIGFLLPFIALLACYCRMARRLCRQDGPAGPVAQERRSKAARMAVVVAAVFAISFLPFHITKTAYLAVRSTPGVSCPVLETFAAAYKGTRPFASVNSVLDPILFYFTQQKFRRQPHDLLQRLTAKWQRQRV
T5 sequence (Q9JJS7 whole entry): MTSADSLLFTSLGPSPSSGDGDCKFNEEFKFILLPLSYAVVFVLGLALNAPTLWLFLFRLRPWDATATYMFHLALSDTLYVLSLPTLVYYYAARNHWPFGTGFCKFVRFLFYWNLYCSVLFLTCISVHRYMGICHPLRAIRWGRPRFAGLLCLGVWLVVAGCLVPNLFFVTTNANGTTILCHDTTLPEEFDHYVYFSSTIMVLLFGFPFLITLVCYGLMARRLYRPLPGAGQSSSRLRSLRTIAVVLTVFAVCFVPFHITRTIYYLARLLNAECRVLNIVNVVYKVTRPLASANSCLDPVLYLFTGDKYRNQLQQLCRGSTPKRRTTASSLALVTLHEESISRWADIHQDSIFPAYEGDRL
T4 sequence (P35383 whole entry): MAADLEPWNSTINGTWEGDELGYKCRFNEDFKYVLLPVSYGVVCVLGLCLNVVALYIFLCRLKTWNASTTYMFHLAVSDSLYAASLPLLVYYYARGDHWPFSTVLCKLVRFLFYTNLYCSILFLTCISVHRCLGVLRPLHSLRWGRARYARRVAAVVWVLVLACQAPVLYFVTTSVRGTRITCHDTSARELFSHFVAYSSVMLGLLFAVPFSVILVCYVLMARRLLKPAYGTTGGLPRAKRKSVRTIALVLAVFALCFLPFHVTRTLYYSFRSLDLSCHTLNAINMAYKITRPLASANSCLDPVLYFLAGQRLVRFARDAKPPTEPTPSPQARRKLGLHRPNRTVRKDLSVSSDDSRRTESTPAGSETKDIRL

Row | Permeability in Caco-2 cells (in words) (Caco-2 cells) | Effect on ATP-induced [Ca2+]i shifts (P2X2R; 100 μM) | Effect on ATP-induced [Ca2+]i shifts potentiated by 1 μM ivermectin (P2X4R) | Effect on ADP-induced [Ca2+]i shifts (P2Y1R) | Effect on 2-S-UTP-activated [Ca2+]i shifts (P2Y2R) | Effect on MRS4062-induced [Ca2+]i shifts (P2Y4R) | Effect on UDPβS-activated [Ca2+]i shifts (P2Y6R) | Effect on 2MeSADP-activated [Ca2+]i shifts (P2Y12R) | Effect on ADPβS-induced [Ca2+]i shifts (P2Y13R) | Effect on ATP-induced [Ca2+]i shifts (P2X2R; 10 μM) | SMILES | Effect on NAADP-induced [Ca2+]i shifts (P2Y11R)
1 | moderate permeability | – | – | – | – | – | – | – | – | – | N#Cc1cnn(-c2nnc(-c3ccccc3Cl)s2)c1N [Compound 9b] | –
2 | moderate permeability | – | – | – | – | – | – | – | – | – | N#Cc1cnn(-c2nnc(-c3ccc(F)cc3)s2)c1N [Compound 9c] | –
3 | – | did not inhibit | did not inhibit | did not inhibit | did not have inhibitory effects | did not inhibit | did not show inhibitory activity | not inhibited | did not inhibit | – | CCOC(=O)c1cnn(-c2nnc(-c3ccccc3Cl)s2)c1N [Compound 9f] | did not inhibit
4 | – | – | did not inhibit | did not inhibit | did not have inhibitory effects | did not inhibit | did not show inhibitory activity | not inhibited | did not inhibit | did not inhibit | COc1ccc(CC(=O)NC(NC(=NC#N)Nc2cccc3ncccc23)C(C)(C)C)cc1OC (centres unmarked) [Compound A740003, N-(1-{[(cyanoimino)(5-quinolinylamino)methyl]amino}-2,2-dimethylpropyl)-2-(3,4-dimethoxyphenyl)acetamide] | did not inhibit
